Results reported in PubChem BioAssay (NCI).
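Exposure lasted 48 hours, with cells grown in 96-well plates and compounds tested at five concentrations. Abbreviation: GI50, concentration required for 50% inhibition of growth. TGI marks complete inhibition of growth.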

Experiments:
Experiment in all cases: inhibition of tumour cell growth, NCI panel, 48 h
A549 NSCLC = tested on: A549 NSCLC
SF-268 CNS = tested on: SF-268 CNS
OVCAR-4 ovarian = tested on: OVCAR-4 ovarian
SN12C renal = tested on: SN12C renal
SK-MEL-2 melanoma = tested on: SK-MEL-2 melanoma
BT-549 breast = tested on: BT-549 breast
ACHN renal = tested on: ACHN renal
SW-620 colon = tested on: SW-620 colon
786-0 renal = tested on: 786-0 renal
HL-60(TB) leukemia = tested on: HL-60(TB) leukemia
U251 CNS = tested on: U251 CNS
RPMI-8226 leukemia = tested on: RPMI-8226 leukemia
HS 578T breast = tested on: HS 578T breast
OVCAR-3 ovarian = tested on: OVCAR-3 ovarian
PC-3 prostate = tested on: PC-3 prostate
SR leukemia = tested on: SR leukemia
SNB-19 CNS = tested on: SNB-19 CNS
CCRF-CEM leukemia = tested on: CCRF-CEM leukemia
COLO 205 colon = tested on: COLO 205 colon
TK-10 renal = tested on: TK-10 renal
DU-145 prostate = tested on: DU-145 prostate
KM12 colon = tested on: KM12 colon
UACC-62 melanoma = tested on: UACC-62 melanoma
IGROV1 ovarian = tested on: IGROV1 ovarian
NCI-H226 lung = tested on: NCI-H226 lung
HCT-15 colon = tested on: HCT-15 colon
NCI-H522 lung = tested on: NCI-H522 lung
EKVX NSCLC = tested on: EKVX NSCLC
RXF 393 renal = tested on: RXF 393 renal
HOP-62 NSCLC = tested on: HOP-62 NSCLC
SK-MEL-28 melanoma = tested on: SK-MEL-28 melanoma
K-562 leukemia = tested on: K-562 leukemia
A498 renal = tested on: A498 renal
SK-MEL-5 melanoma = tested on: SK-MEL-5 melanoma
HT29 colon = tested on: HT29 colon
MDA-MB-231 breast = tested on: MDA-MB-231 breast
MOLT-4 leukemia = tested on: MOLT-4 leukemia
UACC-257 melanoma = tested on: UACC-257 melanoma
NCI-H460 lung = tested on: NCI-H460 lung
HOP-92 NSCLC = tested on: HOP-92 NSCLC
SF-539 CNS = tested on: SF-539 CNS
HCT-116 colon = tested on: HCT-116 colon
SK-OV-3 ovarian = tested on: SK-OV-3 ovarian
UO-31 renal = tested on: UO-31 renal
SF-295 CNS = tested on: SF-295 CNS
MDA-MB-435 = tested on: MDA-MB-435
HCC-2998 colon = tested on: HCC-2998 colon
CAKI-1 renal = tested on: CAKI-1 renal
M14 melanoma = tested on: M14 melanoma
SNB-75 CNS = tested on: SNB-75 CNS
NCI/ADR-RES ovarian = tested on: NCI/ADR-RES ovarian
MCF7 breast = tested on: MCF7 breast
T-47D breast = tested on: T-47D breast
OVCAR-5 ovarian = tested on: OVCAR-5 ovarian
MALME-3M melanoma = tested on: MALME-3M melanoma

COC(=O)c1cccc(NC2=C(Cl)C(=O)c3nc(C)ccc3C2=O)c1
GI50 (A549 NSCLC): 18.1 µM | TGI (A549 NSCLC): 37.9 µM | GI50 (SF-268 CNS): 2.76 µM | TGI (SF-268 CNS): 9.59 µM | GI50 (OVCAR-4 ovarian): 1.42 µM | TGI (OVCAR-4 ovarian): 2.89 µM | GI50 (SN12C renal): 2.13 µM | TGI (SN12C renal): 5.4 µM | GI50 (SK-MEL-2 melanoma): 2.27 µM | TGI (SK-MEL-2 melanoma): 6.48 µM | GI50 (BT-549 breast): 1.68 µM | TGI (BT-549 breast): 3.09 µM | GI50 (ACHN renal): 1.78 µM | TGI (ACHN renal): 3.4 µM | GI50 (SW-620 colon): 1.97 µM | TGI (SW-620 colon): 4.03 µM | GI50 (786-0 renal): 1.86 µM | TGI (786-0 renal): 3.66 µM | GI50 (HL-60(TB) leukemia): 1.53 µM | TGI (HL-60(TB) leukemia): 3.64 µM | GI50 (U251 CNS): 3.27 µM | TGI (U251 CNS): 11.8 µM | GI50 (RPMI-8226 leukemia): 2.14 µM | TGI (RPMI-8226 leukemia): 6 µM | GI50 (HS 578T breast): 2.46 µM | TGI (HS 578T breast): 6.26 µM | GI50 (OVCAR-3 ovarian): 1.59 µM | TGI (OVCAR-3 ovarian): 3.03 µM | GI50 (PC-3 prostate): 2.8 µM | TGI (PC-3 prostate): 10.3 µM | GI50 (SR leukemia): 1.83 µM | TGI (SR leukemia): 4.62 µM | GI50 (SNB-19 CNS): 10.8 µM | TGI (SNB-19 CNS): > 100 µM | GI50 (CCRF-CEM leukemia): 2.01 µM | TGI (CCRF-CEM leukemia): 5.48 µM | GI50 (COLO 205 colon): 1.77 µM | TGI (COLO 205 colon): 3.76 µM | GI50 (TK-10 renal): 1.78 µM | TGI (TK-10 renal): 3.19 µM | GI50 (DU-145 prostate): 1.86 µM | TGI (DU-145 prostate): 3.39 µM | GI50 (KM12 colon): 13.3 µM | TGI (KM12 colon): 29.4 µM | GI50 (UACC-62 melanoma): 2.62 µM | TGI (UACC-62 melanoma): 8.1 µM | GI50 (IGROV1 ovarian): 1.98 µM | TGI (IGROV1 ovarian): 3.89 µM | GI50 (NCI-H226 lung): 2.02 µM | TGI (NCI-H226 lung): 4.39 µM | GI50 (HCT-15 colon): 1.54 µM | TGI (HCT-15 colon): 3.33 µM | GI50 (NCI-H522 lung): 1.89 µM | TGI (NCI-H522 lung): 4.46 µM | GI50 (EKVX NSCLC): 1.77 µM | TGI (EKVX NSCLC): 3.6 µM | GI50 (RXF 393 renal): 1.57 µM | TGI (RXF 393 renal): 2.94 µM | GI50 (HOP-62 NSCLC): 15.1 µM | TGI (HOP-62 NSCLC): 29.6 µM | GI50 (SK-MEL-28 melanoma): 1.96 µM | TGI (SK-MEL-28 melanoma): 3.71 µM | GI50 (K-562 leukemia): 0.976 µM | TGI (K-562 leukemia): 3.94 µM | GI50 (A498 renal): 12 µM | TGI (A498 renal): 24.6 µM | GI50 (SK-MEL-5 melanoma): 1.8 µM | TGI (SK-MEL-5 melanoma): 3.34 µM | GI50 (HT29 colon): 2.32 µM | TGI (HT29 colon): 6.09 µM | GI50 (MDA-MB-231 breast): 2.15 µM | TGI (MDA-MB-231 breast): 5.08 µM | GI50 (MOLT-4 leukemia): 2.53 µM | TGI (MOLT-4 leukemia): 5.68 µM | GI50 (UACC-257 melanoma): 1.57 µM | TGI (UACC-257 melanoma): 3 µM | GI50 (NCI-H460 lung): 18.5 µM | TGI (NCI-H460 lung): 41.5 µM | GI50 (HOP-92 NSCLC): 1.92 µM | TGI (HOP-92 NSCLC): 3.95 µM | GI50 (SF-539 CNS): 1.75 µM | TGI (SF-539 CNS): 3.27 µM | GI50 (HCT-116 colon): 1.6 µM | TGI (HCT-116 colon): 3.32 µM | GI50 (SK-OV-3 ovarian): 12.5 µM | TGI (SK-OV-3 ovarian): 25.2 µM | GI50 (UO-31 renal): 1.44 µM | TGI (UO-31 renal): 2.79 µM | GI50 (SF-295 CNS): 15.8 µM | TGI (SF-295 CNS): 29.9 µM | GI50 (MDA-MB-435): 2.04 µM | TGI (MDA-MB-435): 4.29 µM | GI50 (HCC-2998 colon): 2.21 µM | TGI (HCC-2998 colon): 4.8 µM | GI50 (CAKI-1 renal): 1.71 µM | TGI (CAKI-1 renal): 3.28 µM | GI50 (M14 melanoma): 1.84 µM | TGI (M14 melanoma): 3.42 µM | GI50 (SNB-75 CNS): 13.2 µM | TGI (SNB-75 CNS): 26.2 µM | GI50 (NCI/ADR-RES ovarian): 2.25 µM | TGI (NCI/ADR-RES ovarian): 6.28 µM | GI50 (MCF7 breast): 1.89 µM | TGI (MCF7 breast): 4.61 µM | GI50 (T-47D breast): 2.04 µM | TGI (T-47D breast): 5.02 µM | GI50 (OVCAR-5 ovarian): 3.14 µM | TGI (OVCAR-5 ovarian): 14.7 µM | GI50 (MALME-3M melanoma): 1.95 µM | TGI (MALME-3M melanoma): 3.76 µM
